Reference: patent publication US4478827A, “Renin inhibitors” (The General Hospital Corporation, priority 1983, dated 1984)
In brackets after ≈: the same amount, converted by molar mass. Read-outs that look alike come from different tables or passages of the source. Where a SMILES comes first, the peptide text is derived from it. [ ]: non-standard residue; d: D form.

Experiments:
renin [1] = target: T1, renin (Homo sapiens, UniProt P00797); experiment: biochemical
T1 sequence (P00797 67-406): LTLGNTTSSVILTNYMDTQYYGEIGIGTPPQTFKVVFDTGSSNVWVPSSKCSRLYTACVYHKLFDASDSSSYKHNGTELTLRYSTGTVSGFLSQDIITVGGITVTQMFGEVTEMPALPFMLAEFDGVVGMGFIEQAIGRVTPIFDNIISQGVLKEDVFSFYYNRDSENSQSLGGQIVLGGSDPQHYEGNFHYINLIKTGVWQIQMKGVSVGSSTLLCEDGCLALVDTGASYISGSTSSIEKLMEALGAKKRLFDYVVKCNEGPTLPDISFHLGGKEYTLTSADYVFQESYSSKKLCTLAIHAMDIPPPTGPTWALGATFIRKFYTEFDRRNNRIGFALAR
Experimental: The peptide being tested is dissolved in 0.01 N HCl and the pH adjusted to pH 7.5 to obtain high concentrations of peptide. The peptide solution is diluted further to appropriate concentrations with 0.1 M Tris HCl-albumin.
First, to determine Km, renin (0.006 Goldblatt unit/ml) is incubated for 2 hrs. at 37° with incremental concentrations of tetradecapeptide substrate varying between 3 and 108μ M in a volume of 160 μl at pH 7.5 in 0.1M Tris HCl containing 0.5% albumin. The release of angiotensin I is determined by radioimmunoassay (Haber et al, J. Clin. Endocrinol. Metab. 29, 1349 (1969)). […] Controls for cross-relatively are performed with each experiment and appropriate corrections are made when significant, (Poulsen et al, Scand. J. Clin. Lab. Invest. 31, Suppl. No. 132, 1, (1973)).
The inhibitor constant is calculated at previously described, (Poulsen et al, Scand. J. Clin. Lab. Invest. 31, suppl. No. 132, 1, (1973)), from a weighted leastsquares fit of a Lineweaver-Burk plot. […]
Angiotensin I standards and tetradecapeptide renin substrate were obtained from Peninsula (San Mateo, CA). Angiotensin I concentrations were determined with the radio immunoassay kit purchased from New England Nuclear (Boston, MA). […]
Data from the RIA was worked up using a computer program. Data were first fitted to a Lineweaver-Burke plot and from this KI was calculated.

[2] = Solubility in aqueous medium; type: physicochemical
[3] = Half life in vivo (loss of radioactively labeled peptide from the circulation)
Experimental: The polypeptides of this invention are characterized by solubility in an aqueous medium at physiologic pH of 100-500 μm, an inhibition constant for (Ki) of between 1-50 μm and a half-life in vivo, as measured by rate of loss of radioactively labeled peptide from the circulation, of between about 1-10 minutes, especially 5-10 minutes.

log P = type: physicochemical
renin [4] = target: T1, renin; details: octapeptides with replaced Leu-Leu cleavage site, prior art; read-out: binding constants; cited from earlier work
[5] = pH 7.4, water, pH 7.40, read-out: Solubility (pH 7.40)

## CC(C)[C@H](NC(=O)[C@H](Cc1ccccc1)NC(=O)[C@H](Cc1ccccc1)NC(=O)[C@H](Cc1c[nH]cn1)NC(=O)[C@H](Cc1ccccc1)NC(=O)[C@@H]1CCCN1C(=O)[C@H](Cc1c[nH]cn1)NC(=O)[C@@H]1CCCN1)C(=O)N[C@@H](Cc1ccc(O)cc1)C(=O)N[C@H](CCCCN)C(=O)O [D-RIP, Pro-His-Pro-Phe-His-Phe-Phe-Val-Tyr-D-Lys] (H-PHPFHFFVY[dK]-OH)
Renin [1]
  Ki: 29.5 µM
[2]
  solubility: 330 µM (≈ 435 µg/mL)
[2]; [5]
  solubility: 330 µM (≈ 435 µg/mL)
[3]
  Half life in vivo: 5 min
Log P
  logP: -1.28

## Leu-Tyr
Renin [4]
  Ki: 12 µM

## CC(C)[C@H](NC(=O)[C@H](Cc1ccccc1)NC(=O)[C@H](Cc1ccccc1)NC(=O)[C@H](Cc1cnc[nH]1)NC(=O)[C@H](Cc1ccccc1)NC(=O)[C@@H]1CCCN1C(=O)[C@H](Cc1cnc[nH]1)NC(=O)[C@@H]1CCCN1)C(=O)N[C@@H](Cc1ccc(O)cc1)C(=O)N[C@@H](CCCCN)C(=O)O [RIP, Pro-His-Pro-Pre-His-Phe-Phe-Val-Tyr-Lys] (H-PHPFHFFVYK-OH)
Renin [1]
  Ki: 42 µM
[2]; [5]
  solubility: 840 µM (≈ 1110 µg/mL)
[3]; in vitro and in vivo
  life in vitro and in vivo: relatively short life
[3]
  Half life in vivo: 3.8 min

## Leu-Phe
Renin [4]
  Ki: 4 µM
